{"source": "paper PMC11233548", "about": "(Communications Biology, 2024)", "tested_on": "B-RBD-D211A, D213A", "assay": "BRET-titration Gal1/B-RBD-D211A, D213A", "assay_type": "cell-based, human", "conditions": "versus wild-type, n = 3"}
{"substance": "Gal1: galectin-1, H-Ras nanocluster scaffold", "values": [{"measurement": "BRETtop, Gal1/B-RBD-D211A, D213A", "value": "significantly reduced"}]}
